The compounds below were run against σ1-receptor (Cavia porcellus, UniProt Q60492) (assay: sigma-1 receptor binding assay, [3H](+)-pentazocine, brain membranes). Details: 1µM compound; [3H](+)-pentazocine 0.5 nM; guinea pig brain membranes; 37°C for 150 min; read-out: binding sigma-1 % Inh (1µM).
Procedure: Some representative compounds of the invention were tested for their activity as sigma (sigma-1) inhibitors. The following protocols were followed:
Brain membrane preparation and binding assays for the σ1-receptor were performed as described (DeHaven-Hudkins et al., 1992) with some modifications. In brief, guinea pig brains were homogenized in 10 vols. (w/v) of Tris-HCl 50 mM 0.32 M sucrose, pH 7.4, with a Kinematica Polytron PT 3000 at 15000 r.p.m. for 30 s. The homogenate was centrifuged at 1000g for 10 min at 4°C and the supernatants collected and centrifuged again at 48000g for 15 min at 4°C. The pellet was resuspended in 10 volumes of Tris-HCl buffer (50 mM, pH 7.4), incubated at 37°C for 30 min, and centrifuged at 48000g for 20 min at 4°C. Following this, the pellet was resuspended in fresh Tris-HCl buffer (50 mM, pH 7.4) and stored on ice until use.
Each assay tube contained 10 µL of [^3H](+)-pentazocine (final concentration of 0.5 nM), 900 µL of the tissue suspension to a final assay volume of 1 mL and a final tissue concentration of approximately 30 mg tissue net weight/mL. Non-specific binding was defined by addition of a final concentration of 1 µM haloperidol. All tubes were incubated at 37°C for 150 min before termination of the reaction by rapid filtration over Schleicher & Schuell GF 3362 glass fibre filters [previously soaked in a solution of 0,5% polyethylenimine for at least 1 h]. Filters were then washed with four times with 4 mL of cold Tris-HCl buffer (50 mM, pH 7.4). Following addition of scintillation cocktail, the samples were allowed to equilibrate overnight. The amount of bound radioactivity was determined by liquid scintillation spectrometry using a Wallac Winspectral 1414 liquid scintillation counter. Protein concentrations were determined by the method of Lowry et al. (1951).

Chain of σ1-receptor (Q60492 whole entry): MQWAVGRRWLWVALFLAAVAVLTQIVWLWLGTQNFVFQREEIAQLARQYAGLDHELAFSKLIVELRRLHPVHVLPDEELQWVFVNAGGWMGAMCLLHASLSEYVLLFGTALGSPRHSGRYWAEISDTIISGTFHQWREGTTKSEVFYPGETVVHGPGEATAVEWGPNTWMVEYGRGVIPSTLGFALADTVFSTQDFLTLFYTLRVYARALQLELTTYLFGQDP

Row | inhibition at 1 µM | Structure (SMILES)
1 | 60% | [O-][N+]1(CCC2CCCc3c2cnn3-c2ccccc2)CCOCC1 (stereo not drawn) [Example 1, 4-(2-(1-phenyl-4,5,6,7-tetrahydro-1H-indazol-4-yl)ethyl)morpholine N-oxide]
2 | 76.4% | [O-][N+]1(CC[C@H]2CCCc3c2cnn3-c2ccccc2)CCOCC1 [Example 3, (R)-4-(2-(1-phenyl-4,5,6,7-tetrahydro-1H-indazol-4-yl)ethyl)morpholine N-oxide]
3 | 98% | [O-][N+]1(CC[C@@H]2CCCc3c2cnn3-c2ccccc2)CCOCC1 [Example 5, (S)-4-(2-(1-phenyl-4,5,6,7-tetrahydro-1H-indazol-4-yl)ethyl)morpholine N-oxide]

Reference: patent publication EP2468728A1, “2-(1-phenyl-4,5,6,7-tetrahydro-1H-indazol-4-YL)ethylamine derivatives useful as sigma receptor inhibitors” (Laboratorios del. Dr. Esteve, S.A., priority 2010, dated 2012)
